# Reference: patent EP0382411B1, “Delivery of cytotoxic agents” (ELI LILLY AND COMPANY, priority 1989, dated 1990)
# Where “and” joins values, the source holds several entries; their conditions need not be identical. Equal values may be shown once.
# How the values were obtained:
# [1] = tested on: male Fischer 344 rats; experiment: Rat hematology protocol (white blood cell determination); format: in vivo; settings: for WBC's, Day 0, Mean: group mean of 5 rats; for WBC's, Day 0, Mean / WBC's, Day 0: pre-bleed before i.v. injection of 1 mg/kg; for WBC's, Day 3, Mean / WBC's, Day 7, Mean: group mean; for WBC's, Day 7, Mean / WBC's, Day 7: day 7 after 1 mg/kg i.v.; for WBC's, Day 3 / WBC's, Day 7 / WBC's, Day 0: individual rat; for WBC's, Day 0: 1 mg/kg
# Method: The purpose of the following procedure was to compare the toxicity of the Substrate-Cytotoxic Agent to the toxicity of Cytotoxic Agent alone. • 1. Day 0: 25 male Fischer 344 rats (∼100g) are pre-bled (eyebleed) and injected i.v. as follows: • Group A: 5 rats + vehicle control: 0.5 ml 10 mM HEPES, 150 NaCl, pH 7.1 buffer containing 10% ethanol. • Group B: 5 rats + 1 mg/kg 4 desacetylvinblastine-3-carboxhydrazide (DAVLBHYD). Dissolve 1 mg DAVLBHYD in 0.5 ml absolute ethanol and add 4.5 ml HEPES-NaCl buffer. Inject each rat with 0.5 ml. • Group C: 5 rats + 1 mg/kg ("LY262758") (7-β-2-(phenoxyacetamido)-3-(((desacetylvinblastine)aminocarboxy)methylene)-3-cephem-1-β-sulfoxide-4-carboxybiacid, trifluoroacetic acid salt) (vinca content), (58% vinca). Dissolve 2 mg as above and inject 0.5 ml. • Group D: 5 rats + 1mg/kg ("LY266494"), (7-β-(2-(thien-2-yl)acetamido-3-(((desacetylvinblastinehydrazido)carbonyloxy)methylene)-3-cephem-4-carboxylic acid, hydrochloride salt (55.8% vinca). Dissolve 2 mg and inject 0.5 ml. • Group E: 5 rats + 1 mg/kg ("LY266070") 7-β-(2-(thien-2-yl)acetamido-3-(((desacetylvinblastinehydrazido)carbonyloxy)methylene)-3-cephem-1-β-sulfoxide-4-carboxylic acid, trifluoroacetic acid salt. Dissovle 2 mg and inject 0.5 ml. All animals were indentifed by ear punch and were bled on days 3 and 7 post treatment for white blood cell (WBC) determination. The raw data are on the following page. […] The WBC values of the groups were indistinguishable at day 7 (and lower than the pre-bleed which may have been due to using a different instrument for the WBC determination).
# [2] = tested on: CEA - bearing LS174T tumor cells; experiment: In vitro cytotoxicity determination (3H-leucine uptake); format: cell-based
# Method: Target cells (antigen positive or antigen negative) are resuspended in 75% leucine deficient EBSS-MEM (GIBCO, Grand Island, NY) + 10% dialyzed fetal bovine serum (FBS) + gentamicin (GIBCO) at 200,000 cells/ml. Aliquots of this cell suspension, 0.2 ml, are seeded into 96 well plates and incubated overnight at 37°C, 5% CO₂. To the supernatants is added the antibody-enzyme conjugate to a final concentration of 25 µg/ml (unconjugated enzyme, unconjugated antibody, no treatment). The supernatants are removed after 1 hr incubation, and the cells rinsed once with media. The media is then replaced with the same media, but containing a Substrate-Cytotoxic Agent at concentrations between 0.001 and 10 µg/ml. The cells are incubated with the Substrate-Cytotoxic Agent compound for a period of time ranging from 3 to 48 h at 37°C, 5% CO₂. Media containing 4 µCi of ³H-leucine are added per well. The cells are incubated 24 hr with the labeled leucine, then harvested. Uptake of labeled leucine is determined by liquid scintillation counting. (All Samples are run in triplicate.) Results are reported as the Substrate-Cytotoxic Agent concentration at which leucine incorporation is reduced to 50% of the control value (ID₅₀).
# The rest of the experiment was carried using the above standard procedure.
# [3] = biological target: P-99 E. cloacae beta-lactamase Enzyme (Enterobacter cloacae, UniProt P05364); experiment: Release of substituents from the 3'-methylene group of cephalosporins on treatment with beta-lactamase; format: biochemical
# Method: (If the detection method is not instantaneous, the enzyme can be stopped at the desired time by addition of an inhibitor such as cloxacillin (Sigma, St. Louis, Mo.) at its effective concentration: 5 µM for cloxacillin.)
# For instance, a model system for the present method employs the expulsion of aminoethanethiol from 7-β-(2-(thien-2-yl)acetamido)-3-((2-aminoethyl-1-sulfide)methylene)-3-cephem-4-carboxylic acid. A typical enzyme assay was performed (following the 264 nm absorbance), but in 50 mM Tris, 100 mM NaCl buffer, pH 8.0. […] Using molar extinction coefficients of 8,540 for the 264 nm absorbance, and 13,600 for the 412 nm absorbance, the rates of the two reactions can be compared (reaction of thiol with DTNB is instantaneous under these conditions).
# A stock solution of P-99 E. cloacae beta-lactamase Enzyme was prepared. To the stock solution of the cephalosporin Substrate (90 µl) was added stock beta-lactamase solution (10 µl). The reaction was monitored by HPLC (on a Waters Associates C₁₈ µ Bondapak column) eluted with 25% acetonitrile/ 1% acetic acid in water (monitered at 254 nm absorbance). The retention time for 5-fluorouracil was 1.9 minutes and was 5.3 minutes for the cephalosporin - (5-fluorouracil) compound. Approximately 30 seconds after mixing, a 5 µl aliqout of the reaction mixture was injected into the HPLC. […] Thirty-six minutes after mixing the stock solutions the amount of compound eluting at […] was further diminished, and the amount of compound eluting at 1.9 minutes was correspondingly larger by intergration of the peak areas.
# [4] = tested on: white blood cell (WBC); experiment: Rat hematology protocol (white blood cell determination); format: in vivo, male Fischer 344 rats; settings: day 3 post treatment, 1 mg/kg i.v., compared to all other groups
# Method: The purpose of the following procedure was to compare the toxicity of the Substrate-Cytotoxic Agent to the toxicity of Cytotoxic Agent alone. • 1. Day 0: 25 male Fischer 344 rats (∼100g) are pre-bled (eyebleed) and injected i.v. as follows: • Group A: 5 rats + vehicle control: 0.5 ml 10 mM HEPES, 150 NaCl, pH 7.1 buffer containing 10% ethanol. • Group B: 5 rats + 1 mg/kg 4 desacetylvinblastine-3-carboxhydrazide (DAVLBHYD). Dissolve 1 mg DAVLBHYD in 0.5 ml absolute ethanol and add 4.5 ml HEPES-NaCl buffer. Inject each rat with 0.5 ml. • Group C: 5 rats + 1 mg/kg ("LY262758") (7-β-2-(phenoxyacetamido)-3-(((desacetylvinblastine)aminocarboxy)methylene)-3-cephem-1-β-sulfoxide-4-carboxybiacid, trifluoroacetic acid salt) (vinca content), (58% vinca). Dissolve 2 mg as above and inject 0.5 ml. • Group D: 5 rats + 1mg/kg ("LY266494"), (7-β-(2-(thien-2-yl)acetamido-3-(((desacetylvinblastinehydrazido)carbonyloxy)methylene)-3-cephem-4-carboxylic acid, hydrochloride salt (55.8% vinca). Dissolve 2 mg and inject 0.5 ml. • Group E: 5 rats + 1 mg/kg ("LY266070") 7-β-(2-(thien-2-yl)acetamido-3-(((desacetylvinblastinehydrazido)carbonyloxy)methylene)-3-cephem-1-β-sulfoxide-4-carboxylic acid, trifluoroacetic acid salt. Dissovle 2 mg and inject 0.5 ml. All animals were indentifed by ear punch and were bled on days 3 and 7 post treatment for white blood cell (WBC) determination. […]
# [5] = day 3 after 1 mg/kg i.v., trifluoroacetic acid salt
# [6] = substance alone, no conjugate, treatment time 6 Hours
# [7] = substance alone, no conjugate, treatment time 48 Hours
# Sequence of P-99 E. cloacae beta-lactamase Enzyme (P05364 21-381): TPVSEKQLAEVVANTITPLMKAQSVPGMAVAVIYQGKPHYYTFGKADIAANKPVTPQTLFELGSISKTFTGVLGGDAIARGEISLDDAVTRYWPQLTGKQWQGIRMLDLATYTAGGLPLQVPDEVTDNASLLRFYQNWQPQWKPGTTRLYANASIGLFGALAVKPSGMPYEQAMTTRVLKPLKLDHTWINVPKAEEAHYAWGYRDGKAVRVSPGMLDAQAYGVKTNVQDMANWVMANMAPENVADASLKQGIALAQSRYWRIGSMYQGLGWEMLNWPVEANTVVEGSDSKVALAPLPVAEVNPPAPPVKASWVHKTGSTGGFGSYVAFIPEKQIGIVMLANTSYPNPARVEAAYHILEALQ
molecule,measurement,setting,value
"7-β-2-(phenoxyacetamido)-3-(((desacetylvinblastine)aminocarboxy)methylene)-3-cephem-1-β-sulfoxide-4-carboxybiacid, trifluoroacetic acid salt [LY262758]","WBC's, Day 0, Mean",[1],13.4 x 1000
same,"WBC's, Day 3, Mean",[1]; day 3 after 1 mg/kg i.v.,14.8 x 1000
same,"WBC's, Day 7, Mean",[1],11.2 x 1000
same,"WBC's, Day 3",[1]; [5],13.3 x 1000 and 14.6 x 1000 and 15.0 x 1000 and 16.3 x 1000 and 14.7 x 1000
same,"WBC's, Day 7",[1]; trifluoroacetic acid salt,14.0 x 1000 and 13.0 x 1000 and 12.5 x 1000 and 9.0 x 1000 and 7.7 x 1000
same,"WBC's, Day 0",[1]; trifluoroacetic acid salt,13.3 x 1000 and 14.3 x 1000 and 9.4 x 1000 and 10.2 x 1000 and 19.7 x 1000
7-β-(2-(thien-2-yl)acetamido)-3-((((1-(desacetylvinblastine)amino)-2-ethylsulfide)methylene)-3-cephem-4-carboxylic acid [COMPOUND] [listing 1 of 2 here],toxicity to the tumor cells,[2]; LS174T cells first treated with B-L-CEM231 conjugate at 25 µg/ml for 1 hour,dramatically increased
same,toxicity to the tumor cells,"[2]; LS174T cells untreated with conjugate, compared with the Cytotoxic Agent from which it is derived",much less toxic to the tumor cells than the Cytotoxic Agent from which it is derived
7-β-(2-(thien-2-yl)acetamido)-3-((((1-(desacetylvinblastine)amino)-2-ethylsulfide)methylene)-3-cephem-4-carboxylic acid [COMPOUND] [listing 2 of 2 here],ID50,"[2]; cells first treated with B-L-CEM231 conjugate 25 µg/ml for 1 hour, COMPOUND treatment time 6 Hours",0.265 µg/mL
same,ID50,"[2]; cells first treated with B-L-CEM231 conjugate 25 µg/ml for 1 hour, COMPOUND treatment time 48 Hours",<0.001 µg/mL
same,ID50,[2]; [6],.154 µg/mL
same,ID50,[2]; [7],<0.001 µg/mL
"NCCSCC1=C(C(=O)O)N2C(=O)[C@@H](NC(=O)Cc3cccs3)[C@H]2SC1 [7-β-(2-(thien-2-yl)acetamido)-3-((2-aminoethyl-1-sulfide)methylene)-3-cephem-4-carboxylic acid, reference compound]",release of thiol,"[3]; 50 mM Tris, 100 mM NaCl, pH 8.0, DTNB, absorbance at 412 nm vs 264 nm","thiol is released as a result of beta-lactamase catalyzed cleavage of the cephalosporin, but that the release rate is slower than the catalytic rate"
"CC[C@]1(O)C[C@@H]2CN(CCc3c([nH]c4ccccc34)[C@@](C(=O)OC)(c3cc4c(cc3OC)N(C)[C@H]3[C@@](O)(C(=O)NN)[C@H](O)[C@]5(CC)C=CCN6CC[C@]43[C@@H]65)C2)C1 [DAVLB-Hyd, 4 desacetylvinblastine-3-carboxhydrazide, reference compound]",WBC suppression,"[1]; day 3 after 1 mg/kg i.v., compared to all other groups",significant WBC suppression
same,"WBC's, Day 0, Mean",[1],13.8 x 1000
same,"WBC's, Day 3, Mean",[1]; day 3 after 1 mg/kg i.v.,7.4 x 1000
same,"WBC's, Day 7, Mean",[1],9.2 x 1000
same,"WBC's, Day 3",[1]; day 3 after 1 mg/kg i.v.,4.4 x 1000 and 9.0 x 1000 and 5.4 x 1000 and 10.6 x 1000
same,"WBC's, Day 7",[1],5.0 x 1000 and 2.8 x 1000 and 19.8 x 1000
same,"WBC's, Day 0",[1],17.4 x 1000 and 10.9 x 1000 and 10.2 x 1000 and 12.7 x 1000 and 17.6 x 1000
"CC[C@]1(O)C[C@@H]2CN(CCc3c([nH]c4ccccc34)[C@@](C(=O)OC)(c3cc4c(cc3OC)N(C)[C@H]3[C@@](O)(C(=O)NN)[C@H](O)[C@]5(CC)C=CCN6CC[C@]43[C@@H]65)C2)C1 [DAVLBHYD, 4 desacetylvinblastine-3-carboxhydrazide]",white blood cell (WBC) determination,[4],significant WBC suppression
"CCC1(O)CC2CN(CCc3c([nH]c4ccccc34)C(C(=O)OC)(c3cc4c(cc3OC)N(C)C3C(O)(C(=O)NCCS)C(O)C5(CC)C=CCN6CCC43C65)C2)C1 (stereo not shown) [Desacetylvinblastine aminoethanethiol, reference compound]",ID50,[2]; [6],0.26 µg/mL
same,ID50,[2]; [7],<0.001 µg/mL
CC[C@]1(O)C[C@H]2CN(CCc3c([nH]c4ccccc34)[C@@](C(=O)OC)(c3cc4c(cc3OC)N(C)[C@H]3[C@@](O)(C(=O)NNC(=O)OCC5=C(C(=O)O)N6C(=O)[C@@H](NC(=O)Cc7cccs7)[C@H]6[S+]([O-])C5)[C@H](O)[C@]5(CC)C=CCN6CC[C@]43[C@@H]65)C2)C1.O=C(O)C(F)(F)F (stereo partly shown) [LY266070],"WBC's, Day 0, Mean",[1],13.0 x 1000
same,"WBC's, Day 3, Mean",[1]; day 3 after 1 mg/kg i.v.,13.9 x 1000
same,"WBC's, Day 7, Mean",[1],9.6 x 1000
same,"WBC's, Day 3",[1]; [5],15.9 x 1000 and 12.8 x 1000 and 15.1 x 1000 and 14.5 x 1000 and 11.3 x 1000
same,"WBC's, Day 7",[1]; trifluoroacetic acid salt,7.0 x 1000 and 14.5 x 1000 and 9.6 x 1000 (2×) and 7.1 x 1000
same,"WBC's, Day 0",[1]; trifluoroacetic acid salt,14.1 x 1000 and 15.0 x 1000 and 9.9 x 1000 (2×) and 16.2 x 1000
CCC1(O)CC2CN(CCc3c([nH]c4ccccc34)C(C(=O)OC)(c3cc4c(cc3OC)N(C)C3C(O)(C(=O)NNC(=O)OCC5=C(C(=O)O)N6C(=O)C(NC(=O)Cc7cccs7)C6SC5)C(O)C5(CC)C=CCN6CCC43C65)C2)C1.Cl (stereo not shown) [LY266494],"WBC's, Day 0, Mean",[1],15.6 x 1000
same,"WBC's, Day 3, Mean",[1]; day 3 after 1 mg/kg i.v.,15.0 x 1000
same,"WBC's, Day 7, Mean",[1],12.0 x 1000
same,"WBC's, Day 3","[1]; day 3 after 1 mg/kg i.v., hydrochloride salt",19.2 x 1000 and 16.2 x 1000 and 14.3 x 1000 and 13.3 x 1000 and 12.1 x 1000
same,"WBC's, Day 7",[1]; hydrochloride salt,8.3 x 1000 and 6.8 x 1000 and 11.4 x 1000 and 13.2 x 1000 and 20.1 x 1000
same,"WBC's, Day 0",[1]; hydrochloride salt,15.6 x 1000 and 16.5 x 1000 and 14.3 x 1000 and 16.0 x 1000
"O=C(Cc1cccs1)N[C@@H]1C(=O)N2C(C(=O)O)=C(Cn3cc(F)c(=O)[nH]c3=O)CS[C@H]12 [ceph-5-FU, 7-β-(2-(thien-2-yl)acetamido)-3-((N-1(5-fluorouracil)-yl)methylene)-3-cephem-4-carboxylic acid]",expulsion of 5-fluorouracil (HPLC trace),[3]; approximately 30 seconds after mixing with beta-lactamase,the cephalosporin had been consumed
same,expulsion of 5-fluorouracil (HPLC trace),"[3]; twenty-one minutes after mixing, 5-fluorouracil elutes at 1.9 minutes",a large amount of compound eluting at 1.9 minutes was observed
